Experimental data published in patent US4256764A, “Process for making derivatives of dimers of isoeugenol” (PLC Pharmaceutical Licenses Co. Ltd., priority 1978, dated 1981).

Legend:
[1] = system: experimental liver damage; assay: hexobarbitone sleep test (experimental liver damage by carbon tetrachloride); type: in vivo; conditions: rats
Protocol: A standard testing process for pharmacological effect for experimental liver damage is the hexobarbitone sleep test, whose execution is described among others in a work by G. Vogel et al. in the Arzneimittelforschung, volume 25 (1975), pp. 82-89 and pp. 179-188. For this purpose 100 mg/kg of the compound to be tested were given to rats in groups each of 15 animals in carboxymethyl cellulose intraperitoneally and 90 minutes later 0.3 ml/kg carbon tetrachloride in olive oil by means of a throat probe. The rats were anaesthetised 48 hours later by intraperitoneal dosing of 70 mg/kg of hexabarbitone and the sleep duration was determined: […]

[2] = system: serum enzymes GOT and GPT; assay: galactosamine test (liver protection, serum enzymes GOT and GPT); type: in vivo; conditions: rats
Protocol: (§1) These tests have been described in the already-quoted work by G. Vogel et al. published in Arzneimittelforschung, volume 25 (1975), pages 82 to 89 and 179 to 188.
In the galactosamine tests the rats received in groups each of 15 animals 100 mg/kg of the compound to be tested N-(5-(trans-2,3-dihydro-7-methoxy-3-methyl-5-(E)-propenylbenzofuran-2-yl)- 2-hydroxy-3-methoxy-phenylmethyl)-N-(2-hydroxyethyl)-N-methyl-ammonium chloride and for comparison purposes Silymarine in the tragacanth suspension perorally, one hour later interperitoneally 350 mg/kg of galactosamine hydrochloride and 24 hours later blood samples were taken for determining the serum enzymes GOT and GPT.

mice = assay: α amanitine test (mortality); type: in vivo; conditions: 20 per group, 50 mg/kg i.v., 0.7 mg/kg α amanitine i.p. 1 h later, observed 7 days
Protocol: as §1
In the α amanitine test the mice received in groups of 20 animals each 50 mg/kg of N-(5-(trans-2,3-dihydro-7-methoxy-3-methyl-5-(E)-propenylbenzofuran-2-yl)-2--hydroxy-3-methoxyphenyl-methyl)-N) (2-hydroxyethyl)-N-methyl ammonium chloride and for comparison Silymarine intravenously and an hour later 0.7 mg/kg of α amanitine intraperitoneally.

[3] = toxicologic investigations (LD50); conditions: rat, in vivo, po; rats, peroral application
From the text: The toxicologic investigations indicate a good compatibility of the compounds produced by the process according to the invention.

[4] = 100 mg/kg perorally, enzyme GPT
[5] = 15 per group, 100 mg/kg perorally in tragacanth suspension, 350 mg/kg galactosamine hydrochloride i.p. 1 h later, blood samples 24 h later

SMILES	statistical significance of the effect (sleep duration) ([1]; 100 mg/kg i.p., carbon tetrachloride)	sleep duration ([1]; 15 per group, 100 mg/kg i.p. in carboxymethyl cellulose, 0.3 ml/kg carbon tetrachloride 90 min later, 70 mg/kg hexobarbitone i.p. after 48 h) [min]	effect on GPT compared with Silymarine [2, 4]	statistical significance of the effect on GPT [2, 4]	GOT [2, 5]	GPT [2, 5]	mortality rate (mice) [%]	LD50 [3] [mg/kg]
C/C=C/c1cc(OC)c2c(c1)[C@@H](C)[C@H](c1ccc(O)c(OC)c1)O2 (relative stereo) [dehydrodiisoeugenol, trans-2,3-dihydro-2-(4-hydroxy-3-methoxyphenyl)-7-methoxy-3-methyl-5-(E)-propenylbenzofurane]	highly significant	97						
C/C=C/c1cc(OC)c2c(c1)[C@@H](C)[C@H](c1cc(CN(C)CCO)c(O)c(OC)c1)O2.Cl (relative stereo) [N-(5-(trans-2,3-dihydro-7-methoxy-3-methyl-5-(E)-propenylbenzofuran-2-yl)-2-hydroxy-3-methoxy-phenylmethyl)-N-(2-hydroxyethyl)-N-methyl-ammonium chloride]			clearly better than that of Silymarine	highly significant	422	185	20	4000 to 16000
